Measured values reported in US20030154517A1, “Efficiency agrobacterium-mediated wheat transformation method” (priority 2001, published 2003).
Values joined by “and” are separate entries in the source; they are usually repeats but may differ in a detail not shown here. Identical values can stand only once. Like-named read-outs stand apart in the source and are kept apart here.

Tests used:
[1] = test system: immature embryos of wheat; test: Agrobacterium-mediated wheat transformation, nptII (G418/kanamycin) selection (transformation efficiency); format: cell-based, Triticum aestivum L
Source text: (§1) Immature embryos of wheat (Triticum aestivum L) cv Bobwhite were isolated from the immature caryopsis (wheat spikelets) 12-15 days after pollination, and cultured on CM4C (Table 2) for 1-8 days, most typically for 4-6. The embryos without embryogenic callus were selected for Agrobacterium inoculation.
A disarmed Agrobacterium strain C58 (ABI) harboring a binary vector was used for all the experiments. […] The Agrobacterium cells were resuspended in the inoculation medium and the density was adjusted to an OD660 of 1. […] An equal amount of the Agrobacterium cell suspension was added such that the final concentration of Agrobacterium cells was an OD660 of 0.5. In most experiments, pluronic F68 was added to the inoculation mixture at a final concentration of 0.01%. The ratio between the Agrobacterium and immature embryos (IEs) was about 10 mL: 20-200 IEs. The conditions for inoculation were temperatures from about 23° C.-26° C. with a duration from about 5-60 minutes.
(§2) After the inoculation period, the remaining Agrobacterium cells were removed from the explants by using the in-house vacuum equipment. A piece of sterile Whatman No. 1 filter paper (to fit the size of the petri plate) was placed in each of 60×15 or 60×20 mm petri dishes without additional liquid or agar-supplemented media. Two hundred microliters of sterile water was placed in the middle of the filter paper. After 2-3 minutes, the inoculated immature embryos were placed in the plates. Usually, 20-50 explants are grouped as one stack (about 1 cm in size and 60-80 mg/stack), with 4-5 stacks on each plate. The plates were immediately parafilmed and then co-cultivated in the dark at 24° C.-26° C. for 2-3 days.
For nptII selection, immature embryos were isolated, precultured, inoculated, and co-cultured as previously described. After the 3-day co-culture, embryos were transferred to delay culture (solid CM4C2D) media (CM4C media as in Table 2 with 2 mg/L 2,4-D) with 500 mg/L carbenicillin for 7 days in the dark at 25° C. Selection was done in liquid CM4C media (as in Table 2 without the Phytagel) with 100 mg/L carbenicillin and 20 mg/L G418 on a support for 7 days in the dark followed by 7 days in the light (16 hr photoperiod), at 25° C. The calli were then transferred to liquid MMS0.2C media (as in Table 2 without the gelling agent) with 100 mg/L carbenicillin and 25 mg/L G418 on a support for 2 weeks at 25° C. with a 16 hr photoperiod. After 2 weeks, the calli were transferred to liquid MMSOC media (as in Table 2 without the gelling agent) with 100 mg/L carbenicillin and 25 mg/L G418 on a support for 2 to 4 weeks at 25° C. with a 16 hr photoperiod. Plantlets were transferred to solid MMSOC media with 100 mg/L carbenicillin and 25 mg/L G418 in sundae cups for 1 to 4 weeks at 25° C. with a 16 hr photoperiod.

[2] = test system: immature embryos of wheat (Triticum aestivum L) cv Bobwhite; test: Agrobacterium-mediated wheat transformation, glyphosate selection (transformation efficiency); format: cell-based
Source text: as §1
A disarmed Agrobacterium strain C58 (ABI) harboring a binary vector was used for all the experiments. For the control experiments, cultures of Agrobacterium were initiated from glycerol stocks or from a freshly streaked plate and grown overnight at 26° C.-28° C. with shaking (approximately 150 rpm) to mid-log phase (about OD660=1-1.5) in liquid LB medium, pH 7.0 (Miller, 1972) containing 50 mg/L kanamycin, 50 mg/L streptomycin and spectinomycin, and 25 mg/L chloramphenicol with 200 μM acetosyringone (AS). The Agrobacterium cells were resuspended in the inoculation medium and the density was adjusted to an OD660 of 1. The immature embryos cultured in CM4C medium were transferred into sterile petri plates (16×20 mm) or wells of a 6-well cell culture plate (Costar Corporation, Cambridge, Mass.) containing 10 mL of inoculation medium per petri plate or 5 mL per cell culture cluster plate. An equal amount of the Agrobacterium cell suspension was added such that the final concentration of Agrobacterium cells was an OD660 of 0.5. In most experiments, pluronic F68 was added to the inoculation mixture at a final concentration of 0.01%. The ratio between the Agrobacterium and immature embryos (IEs) was about 10 mL: 20-200 IEs. The conditions for inoculation were temperatures from about 23° C.-26° C. with a duration from about 5-60 minutes.
as §2
After a 3-day co-cultivation, the Agrobacterium-infected precultured immature embryos (PCIE) and embryogenic calli were transferred to CM4C medium (Table 2) supplemented with 500 mg/L carbenicillin and cultured for about seven days. This “delay” medium could also contain glyphosate as discussed in Example 4.
The explants were then transferred to CM4C selection medium with 2 mM glyphosate and 500 mg/L carbenicillin for one week in the dark. All the calli were transferred to MMS0.2C (Table 2) supplemented with 0.1 mM glyphosate and 250 mg/L carbenicillin (first regeneration medium) for an additional two weeks of selection with lighting conditions of about 80 μE. […] All the embryogenic calli were transferred to the second regeneration medium MMS0C (Table 2) supplemented with 500 mg/L carbenicillin and 0.02 mM glyphosate. Aromatic amino acids including I-tryptophan, L-tyrosine, and I-phenylalanine (10^−7 mM/amino acid) were added to this medium to facilitate the selection. These tissues were transferred to fresh media every two weeks. […] Once the root system was established, the plants were transferred to soil and subsequently assayed. […]

[3] = test system: immature embryos of wheat (Triticum aestivum L) cv Bobwhite; test: as above; format: cell-based; remark: listed apart in the source
[4] = Table 19: compound at 2 μM in second regeneration stage (MMSOC media)
[5] = Table 19: compound at 20 μM in second regeneration stage (MMSOC media)
[6] = Table 19 compounds at the concentrations tested (2 and/or 20 μM) in MMSOC

## O=S(=O)([O-])[O-].[Zn+2] [Zinc sulfate]
[1]
  Independent transgenic events/explants: 12/219 and 17/107
  effectiveness at increasing TE: not effective
[1]; [4]
  % TE: 5.5%
[1]; [5]
  % TE: 15.9%

## O=S(=O)([O-])[O-].[Mn+2] [Manganese sulfate]
[1]; [5]
  % TE: 4.2%
  Independent transgenic events/explants: 8/189
[1]; [6]
  effectiveness at increasing TE: not effective

## O=C(O)CNCP(=O)(O)O [glyphosate]
[2]; 0.02 mM glyphosate in preculture and delay culture media (CM4C), per experiment and Total, listed as gly
  TE %: 3.7% and 3.8% and 4.9% and 8.3% and 2.4%
[2]; 0.1 mM gly in MMS0.2C first regeneration medium, per experiment and Total, listed as gly
  Efficiency %: 4.7% and 1.6% and 2.3% and 0.0% and 2.9%
[2]; Table 9b treatment 1: MMS0.2C + 0.1 Gly, two experiments and Total, listed as Gly
  Efficiency %: 4.8% and 6.8% and 8.9%
[2]; glyphosate at 0.02 mM in preculture and delay culture media
  transformation efficiency: significantly improved
[2]; selection 7 days in CM4C + 2 mM glyphosate, per experiment and Total
  TE %: 5.2% and 1.5% and 4.4% and 3.1% and 4% and 2.2%
[3]; 0.5 mM gly in MMS0.2C first regeneration medium, per experiment and Total, listed as gly
  Efficiency %: 1.5% and 7.9% and 2.8% and 3.7% and 3.0%
[3]; 1.0 mM gly in MMS0.2C first regeneration medium, per experiment and Total, listed as gly
  Efficiency %: 5.0% and 5.3% and 4.2% and 2.5%
[3]; Table 9b treatment 2: MMS0.2C + 0.5 Gly, two experiments and Total, listed as Gly
  Efficiency %: 7.7% and 10.7% and 13.7%
[3]; selection 10 days in CM4C + 2 mM glyphosate, per experiment and Total
  TE %: 8.6% and 1.25% and 6.4% and 4.8% and 7.3% and 5.3%

## [Cl][Co][Cl] [Cobalt chloride]
[1]; [5]
  % TE: 9.2%
  Independent transgenic events/explants: 19/207
[1]; [6]
  effectiveness at increasing TE: more effective than the negative control

## Copper acetate
[1]
  % TE: 23.0%
  Independent transgenic events/explants: 53/230

## [Cl][Cu][Cl] [Copper chloride]
[1]; [4]
  % TE: 16.8%
  Independent transgenic events/explants: 37/220
[1]; [5]
  % TE: 24.2%
  Independent transgenic events/explants: 55/227

## [Cl-].[Cl-].[Mg+2] [Magnesium chloride]
[1]
  % TE: 3.0%
  Independent transgenic events/explants: 7/231
  effectiveness at increasing TE: not effective
